Patent publication US20080188490A1, “Acetylene Derivatives” (priority 2005, published 2008)
Where a name gives a salt, the structure may show the parent alone. Blank lines part the entries; values can stand above or below the compound they belong to.

Assays:
hmGluR5 = target: T1, hmGluR5 (Homo sapiens, UniProt P41594); test: inhibition of quisqualate-induced inositol phosphate turnover in hmGluR5 expressing cells; format: cell-based; details: agonist quisqualate, read-out: IC50 concentration, inhibition of quisqualate-induced inositol phosphate turnover
T1 construct: expressed in transfected cells
T1 sequence (P41594 21-1180 isoform P41594-2 limits assumed): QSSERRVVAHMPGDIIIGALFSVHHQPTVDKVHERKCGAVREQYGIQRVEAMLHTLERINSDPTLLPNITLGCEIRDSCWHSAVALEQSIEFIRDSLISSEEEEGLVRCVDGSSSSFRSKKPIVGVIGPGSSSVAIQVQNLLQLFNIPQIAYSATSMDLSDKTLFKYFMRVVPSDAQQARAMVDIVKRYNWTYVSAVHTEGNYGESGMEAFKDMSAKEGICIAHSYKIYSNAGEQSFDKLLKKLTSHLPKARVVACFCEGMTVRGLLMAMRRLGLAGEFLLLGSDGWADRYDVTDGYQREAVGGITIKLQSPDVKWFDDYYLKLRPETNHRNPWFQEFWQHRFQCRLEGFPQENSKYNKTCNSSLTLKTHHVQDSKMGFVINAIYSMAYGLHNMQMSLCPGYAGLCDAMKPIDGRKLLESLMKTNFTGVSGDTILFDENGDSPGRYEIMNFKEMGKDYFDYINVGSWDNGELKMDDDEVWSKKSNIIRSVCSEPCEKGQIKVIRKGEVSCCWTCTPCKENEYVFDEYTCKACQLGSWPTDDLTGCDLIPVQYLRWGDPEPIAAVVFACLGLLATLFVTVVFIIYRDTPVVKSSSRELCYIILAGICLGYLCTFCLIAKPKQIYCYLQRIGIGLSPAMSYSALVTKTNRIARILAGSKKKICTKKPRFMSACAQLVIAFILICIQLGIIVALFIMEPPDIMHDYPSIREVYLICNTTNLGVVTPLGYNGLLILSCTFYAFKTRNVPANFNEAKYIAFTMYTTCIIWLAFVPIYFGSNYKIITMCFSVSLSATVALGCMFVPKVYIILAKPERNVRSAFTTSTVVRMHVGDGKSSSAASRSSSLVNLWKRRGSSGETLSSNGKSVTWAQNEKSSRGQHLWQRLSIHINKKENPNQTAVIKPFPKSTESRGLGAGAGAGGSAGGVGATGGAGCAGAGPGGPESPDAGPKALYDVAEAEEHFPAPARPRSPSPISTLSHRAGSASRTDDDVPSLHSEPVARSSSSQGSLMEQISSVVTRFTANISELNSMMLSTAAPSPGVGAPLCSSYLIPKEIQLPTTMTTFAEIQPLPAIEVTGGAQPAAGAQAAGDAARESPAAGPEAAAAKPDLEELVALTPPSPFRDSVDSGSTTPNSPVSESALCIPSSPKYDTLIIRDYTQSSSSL
Text: This can be determined in vitro for example at recombinant human metabotropic glutamate receptors, especially PLC-coupled subtypes thereof such as mGluR5, using different procedures like, for example, measurement of the inhibition of the agonist induced elevation of intracellular Ca^2+ concentration in accordance with L. P. Daggett et al., Neuropharm. Vol. 34, pages 871-886 (1995), P. J. Flor et al., J. Neurochem. Vol. 67, pages 58-63 (1996) or by determination to what extent the agonist induced elevation of the inositol phosphate turnover is inhibited as described by T. Knoepfel et al., Eur. J. Pharmacol. Vol. 288, pages 389-392 (1994), L. P. Daggett et al., Neuropharm. Vol. 67, pages 58-63 (1996) and references cited therein. Isolation and expression of human mGluR subtypes are described in U.S. Pat. No. 5,521,297. Selected agents of the invention show IC50 values for the inhibition of the agonist (e.g. glutamate or quisqualate) induced elevation of intracellular Ca2+ concentration or the agonist (e.g. glutamate or quisqualate) induced inositol phosphate turnover, measured in recombinant cells expressing hmGluR5a of about 1nM to about 50 μM.

[1] = test system: stress-induced hyperthermia; test: stress-induced hyperthermia in mice; format: in vivo; details: control hyperthermia 0.98±0.08° C.
Method: A. Lecci et al., Psychopharmacol. 101, 255-261]. At doses of about 0.1 to about 30 mg/kg p.o., selected agents of the invention reverse the stress-induced hyperthermia.
With (±)-(1R,3R)-3-(4-Chloro-phenylamino)-1-(3-chloro-phenylethynyl)-cyclohexanol, a stress-induced hyperthermia of 0.98±0.08° C. was reduced to 0.66±0.06° C. at 1 mg/kg p.o., to […] at 3 mg/kg p.o.; to 0.58±0.06° C. at 10 mg/kg p.o. and to 0.33±0.04° C. at 30 mg/kg p.o. (p<0.05; p<0.0011; p<0.01; p<0.001 respectively).

melting point: 83 to 88 °C
Compound: O[C@@]1(C#Cc2cccc(Cl)c2)CCC[C@H](Nc2cc(-c3ccco3)[nH]n2)C1 [Example 1.26, (1S,3S)-1-(3-Chloro-phenylethynyl)-3-(5-furan-2-yl-1H-pyrazol-3-ylamino)-cyclohexanol]

melting point: 78 to 85 °C
Compound: O[C@]1(C#Cc2cccc(Cl)c2)CCC[C@@H](Nc2cc(-c3ccco3)[nH]n2)C1 [Example 1.27, (1R,3R)-1-(3-Chloro-phenylethynyl)-3-(5-furan-2-yl-1H-pyrazol-3-ylamino)-cyclohexanol]

IC50 (hmGluR5): 1600 nM
Compound: O[C@]1(C#Cc2cccc(Cl)c2)CCC[C@@H](Nc2ccc(Cl)cc2)C1 (racemic) [Example 1, (±)-(1R,3R)-3-(4-Chloro-phenylamino)-1-(3-chloro-phenylethynyl)-cyclohexanol]
stress-induced hyperthermia after treatment ([1]; 1 mg/kg p.o., p<0.05): 0.66±0.06 °C | stress-induced hyperthermia after treatment ([1]; 3 mg/kg p.o., p<0.0011): 0.43±10 °C | stress-induced hyperthermia after treatment ([1]; 10 mg/kg p.o., p<0.01): 0.58±0.06 °C | stress-induced hyperthermia after treatment ([1]; 30 mg/kg p.o., p<0.001): 0.33±0.04 °C

melting point: 153 to 163 °C
Compound: O[C@]1(C#Cc2cccc(Cl)c2)CCC[C@@H](Nc2ccc(Cl)cc2)C1 (racemic) (as salt: hydrochloride) [Example 1, (±)-(1R,3R)-3-(4-Chloro-phenylamino)-1-(3-chloro-phenylethynyl)-cyclohexanol]
